This note sets out measurements from paper PMC8782923, “A Klotho-derived peptide protects against kidney fibrosis by targeting TGF-β signaling” (Nature Communications, 2022).

Data set [1] deals with Smad2/3 phosphorylation in NRK-49F cells. Put plainly: TGF-β1-induced Smad2/3 phosphorylation in NRK-49F cells (Western blot). In kind it is cell-based, rat. The following applies: KP1 10 µg/ml (3 μM) or ITD-1 3 μM 1 h, TGF-β1 2 ng/ml 45 min, individual values, n = 3, P <0.001, 0.008 and <0.001, Fig. 3m. The protocol: (§1) Normal rat kidney interstitial fibroblasts (NRK-49F) and human proximal tubular epithelial cells (HKC-8) were cultured at 37 °C. NRK-49F cells were serum-starved for 24 h and were pretreated with KP1 (10 µg/ml, 3 µM) for 1 h prior to incubation with TGF-β1 (#240-B; R&D Systems) at 2 ng/ml. Cells were collected at 45 min or 24 h after TGF-β1 treatment, respectively. Whole-cell lysates were prepared and subjected to Western blot analyses. For some experiments, cells were transiently transfected with expression vector human secreted Klotho (sKlotho) that only contains KL1 domain[48], by using Lipofectamine 2000 reagent (Invitrogen, Grand Island, NY) prior to treatment with TGF-β1.
(§2) Western blot analysis was performed as previously described. […] Image J (v1.8.0) was used to quantify Western blot results.

For data set [2], the system named is ERK1/2, JNK and p38 phosphorylation in NRK-49F cells. The data set is described as follows: TGF-β1-induced MAPK (ERK1/2, JNK, p38) phosphorylation in NRK-49F cells (Western blot). In kind it is cell-based, rat. The following applies: KP1 10 µg/ml (3 μM) or ITD-1 3 μM 1 h, TGF-β1 2 ng/ml 45 min, individual values, n = 3, P <0.001, <0.001 and <0.001, Fig. 3n. The protocol:
as §1, §2

The subject of data set [3] is UUO mice. The data set is described as follows: KP1 versus ITD-1 in UUO mice: renal TGF-β signaling and fibrosis proteins (Western blot). In kind it is in vivo, mouse. On the set-up: renal p-Smad2 (Western blot) / renal p-Smad3 (Western blot) / renal p-p38 (Western blot) / renal p-JNK (Western blot) / renal collagen I (Western blot) / renal fibronectin (Western blot) / renal α-SMA (Western blot): unit not given here. The following applies: KP1 1 mg/kg (0.31 μM/kg) or ITD-1 0.31 μM/kg, individual animals. The protocol: (§3) Male BALB/c mice weighing 20–22 g were purchased from Beijing Vital River Laboratory Animal Technology Co. and housed in a standard environment which was characterized by 12 h light/dark cycle, 22–25 °C, and 40–60% humidity with free access to water and chow (catalog number: SWS9102). Mice have randomly divided into 3 groups: (i) sham controls; (ii) UIRI or UUO mice treated with vehicle; (iii) UIRI or UUO mice treated with KP1. A renal UIRI model was performed. Briefly, under general anesthesia, mice were made a midline abdominal incision, and the left kidney was clipped for 35 min by a vascular clamp. Mice were kept on the heating block at 37 °C during ischemia. The contralateral right kidney was removed on day 10 after ischemia–reperfusion. Mice were sacrificed 11 days after IRI. Blood and kidneys were collected for analysis. UUO model was established. Briefly, the left ureter of the lower pole of the kidney was obstructed by 3–0 surgical suture. KP1 peptide was dissolved in 0.01 M acetic acid and administrated intravenously via tail vein at concentration of 1 mg/day/kg (0.31 μM/day/kg) body weight for 6 days. For some experiments, ITD-1 (S6713, Selleck) was dissolved in PBS with 0.025% DMSO and 0.1% Tween 80 buffer and injected via tail vein at 0.31 μM/day/kg body weight. All animal studies were approved by the Laboratory Animal Ethics Committee of Nanfang Hospital, Southern Medical University.
Western blot analysis was performed as previously described. The primary antibodies used were as follows: anti-fibronectin (dilution 1:10000; F3648; Sigma), anti-α-SMA (dilution 1:1000; ab7817; Abcam), anti-collagen-1 (dilution 1:1000; BM4017; Boster), anti-p-Smad3 (dilution 1:1000; #9520), anti-p-Smad2 (dilution 1:1000; #3104s), anti-p-ERK (dilution 1:1000; #9101s), anti-p-p38 (dilution 1:1000; #9211s), anti-p-JNK (dilution 1:1000; #9251s), anti-Smad2/3 (dilution 1:1000; #8685s), anti-JNK (dilution 1:1000; #9252), anti-ERK (dilution 1:1000; #4695), anti-p38 (dilution 1:1000; #8690; Cell Signaling Technology), anti-Klotho (dilution 1:1000; AF1819; R&D System), anti-TβR2 (dilution 1:1000; sc-7791; Santa Cruz), anti-TGF-β1 (dilution 1:1000; ab92486; Abcam), anti-GAPDH (dilution 1:5000; LK9002L; Sungene, Tianjin), anti-FITC (dilution 1:1000; PA1-26793; Invitrogen), anti-F4/80 (dilution 1:1000; 14-4801-82, eBioscience). The integration of all blots images was performed on Adobe Photoshop CS6. Graphpad Prism 8 was used to get statistics figures. Image J (v1.8.0) was used to quantify Western blot results. […]
in vivo. UUO mice were treated with KP1 (1 mg/kg, 0.31 μM/kg) or ITD-1 (0.31 μM/kg). We stern blot analyses (a, b) and quantitative data of p-Smad2 (c), p-Smad3 (d), p-ERK1/2 (e), p-JNK (f) and p-p38 […]
n=6 biologically independent animals. (h-k) Western blot analyses (h) and quantitative data of fibronectin (i), α-SMA (j) and Collagen Ⅰ (k) are shown. P values (from left to right): 0.001, 0.627, […]
independent animals. Data are presented as mean values +/- SEM. Statistical significance was determined by one-way ANOVA followed by Dunnett’s T3 post hoc test.
(1 picture or pasted object on this page, not shown here)
A general note: In western blotting, separated proteins are transferred to a membrane and probed.

In data set [4] the target is T1, TGF-β receptor 2 (TβR2), recombinant (Homo sapiens, UniProt P37173).
T1 construct: purchased Sino Biological Inc., Beijing, China 10358-H03H-B
Put plainly: SPR affinity measurement (Biacore T200). In kind it is binding. The following applies: 25 °C, 1:1 fit, KP1 0.78–25 μM, KP12 1.56–100 μM, representative of two independent experiments, read-out: ka. On the procedure:
The SPR analyses were performed on a Biacore T200 apparatus (GE Healthcare, Uppsala Sweden) at 25 °C. Recombinant TGF-β receptor 2 protein (43.4 kDa, >95% as determined by SDS-PAGE) (10358-H03H-B; Sino Biological Inc., Beijing, China) diluted at 50 µg/ml in 10 mM acetate pH 4.0, was covalently immobilized on a CM5 sensor chip (GE Healthcare) using amine-coupling chemistry. Samples of KP1 (3.229 kDa, HPLC purity >95%) or KP12 (3.6 kDa, HPLC purity >95%) in PBS at various concentrations were injected at a flow rate of 60 μl/min. The injection time was set to 180 s, the dissociation time was set to 540 s, and 50 mM Gly-HCl (pH = 2.5) was used as the regeneration buffer. Data were fitted to a 1:1 binding model to obtain KD. All results presented were representative of double or triplicated injections in an interleaved manner. Two independent experiments were performed.

For data set [5], the system named is UIRI mice. Put plainly: Blood calcium and phosphorus in UIRI mice. The data set is classed as in vivo, mouse. The protocol:
as §3

“And” between values parts separate entries of the source, which are not always exact repeats. Equal values may be shown once.

T1 sequence (P37173 23-159 limits assumed): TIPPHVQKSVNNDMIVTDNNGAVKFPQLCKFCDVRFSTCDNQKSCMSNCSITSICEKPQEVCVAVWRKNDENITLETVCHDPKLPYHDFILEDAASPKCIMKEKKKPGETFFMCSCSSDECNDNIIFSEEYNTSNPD

Regarding `CCOC(=O)C1=C(C)NC2=C(C(=O)CC(C)(C)C2)C1c1ccc(-c2ccccc2)cc1` (centres unmarked) [ITD-1], in data set [1], the “p-Smad3 (quantitative Western blot), KP1 versus ITD-1” value was 2.756 and 2.347 and 1.188. In addition, the “p-p38 (quantitative Western blot), KP1 versus ITD-1” value in data set [2] was 2.793 and 1.62 and 1.25. Also, the “renal collagen I (Western blot)” value in data set [3] (n = 6, P 0.001, 0.477, 0.001, Supplementary Fig. 5k) is 6.627 and 4.346 and 7.91 and 8.759 and 4.669 and 8.535. The “renal fibronectin (Western blot)” value in data set [3] (n = 6, P 0.001, 0.627, <0.001, Supplementary Fig. 5i) was 9.72 and 9.315 and 3.815 and 3.805 and 3.523 and 5.024. The “renal p-ERK1/2 (Western blot)” value in data set [3] (n = 6, P 0.004, 0.988, 0.002, Supplementary Fig. 5e) was 11.5729 and 8.005 and 9.67 and 4.8 and 3.482 and 4.512. Besides, in data set [3] (n = 6, P 0.006, 0.497, 0.007, Supplementary Fig. 5j), the “renal α-SMA (Western blot)” value is 10.3176 and 15.77 and 12.2484 and 11.8776 and 11.4615 and 9.704. The “renal p-Smad3 (Western blot)” value in data set [3] (n = 6, P <0.001, 0.438, <0.001, Supplementary Fig. 5d) was 6.279 and 6.866 and 5.7731 and 6.57 and 6.136 and 7.119. The “renal p-JNK (Western blot)” value in data set [3] (n = 6, P <0.001, 0.758, <0.001, Supplementary Fig. 5f) is 4.803 and 6.567 and 5.7 and 7.786 and 5.264 and 7.2. In data set [3] (n = 6, P <0.001, 1.00, 0.001, Supplementary Fig. 5g), the “renal p-p38 (Western blot)” value was 5.956 and 6.507 and 4.878 and 4.538 and 5.819 and 6.755. In addition, in data set [3] (n = 6, P <0.001, 1.00, <0.001, Supplementary Fig. 5c), the “renal p-Smad2 (Western blot)” value was 18.8987 and 13.9891 and 9.419 and 10.7729 and 8.909 and 13.9004.
`CC(C)C[C@H](NC(=O)[C@H](Cc1ccccc1)NC(=O)CNC(=O)[C@H](CC(=O)O)NC(=O)[C@@H]1CCCN1C(=O)[C@H](Cc1ccccc1)NC(=O)[C@@H](NC(=O)CNC(=O)[C@H](CCC(N)=O)NC(=O)[C@@H](N)Cc1ccccc1)[C@@H](C)O)C(=O)N[C@@H](Cc1c[nH]c2ccccc12)C(=O)N[C@@H](C)C(=O)N[C@H](C(=O)NCC(=O)N[C@@H](CO)C(=O)N[C@@H](C)C(=O)N[C@@H](C)C(=O)N[C@@H](Cc1ccc(O)cc1)C(=O)N[C@@H](CCC(N)=O)C(=O)N[C@H](C(=O)N[C@@H](CCC(=O)O)C(=O)NCC(=O)NCC(=O)N[C@@H](Cc1c[nH]c2ccccc12)C(=O)N[C@@H](CCC(N)=O)C(=O)N[C@@H](CCC(N)=O)C(=O)N[C@@H](Cc1c[nH]cn1)C(=O)NCC(=O)N[C@@H](CCCCN)C(=O)NCC(=O)O)[C@@H](C)O)C(C)C` [KP1]: the kon in data set [4] was 408 M⁻¹ s⁻¹. In data set [5] (UIRI mice + KP1, individual animals, n = 6, UIRI vs UIRI/KP1 P=0.220, Supplementary Table 2), the phosphorus is 4.92 mmol/L and 5.73 mmol/L and 6.63 mmol/L and 4.9 mmol/L and 3.76 mmol/L and 4.04 mmol/L. For the same compound, the calcium in data set [5] (UIRI mice + KP1, individual animals, n = 6, UIRI vs UIRI/KP1 P=0.798, Supplementary Table 2) is 2.71 mmol/L and 2.53 mmol/L and 2.54 mmol/L and 2.38 mmol/L and 2.93 mmol/L and 2.46 mmol/L. For the same compound, in data set [5] (compared to the UIRI group), the “effect on blood phosphorus and calcium (in words)” value is “did not affect blood phosphorus and calcium level compared to the UIRI group”.
